The text below walks through data of patent US20240182460A1, “ALLOSTERIC CHROMENONE INHIBITORS OF PHOSPHOINOSITIDE 3-KINASE (PI3K) FOR THE TREATMENT OF DISEASE” (PETRA PHARMA CORPORATION, priority 2022, published 2024).

Assay [1] concerns the target T1, PI3Kα E545K (Homo sapiens, UniProt P42336, E545K). Briefly: PI3Kα E545K mutant in vitro cell based assay, MCF-7 cells. Particulars: MCF-7 cell line, 0% FBS, 3 hours treatment. The text has this: PI3K-Alpha Kinase (PI3Kα) Activity: Wild-Type PI3Kα, H1047R Mutant PI3Kα, and E545K Mutant PI3Kα In Vitro Cell Based Assays and Determination of IC50 Values for Inhibitors
The MDA-MB-453 (ATCC-HTB-131) cell line (PI3Kα H1047R) and MCF-7 (ATCC-HTB-22) cell line (PI3Kα E545K), MDA-MB-361 (ATCC-HTB-27) cell line (PI3Kα E545K), and SKBR3 (ATCC-HTB-30) cell line (wild type PI3Kα) were obtained from the American Type Culture Collection (Manassas, VA). MDA-MB-453 cells were maintained in Dulbecco's Modified Eagle Media (DMEM, Gibco 12430) supplemented with 10% Fetal Bovine Serum, heat inactivated (FBS HI, Gibco 10082), 1× non-essential amino acids (NEAA, Gibco 11140), 1 mM sodium pyruvate (Gibco 11360) and 1× Anti-Anti (Gibco 15240). MCF-7 cells were maintained in Minimum Essential Media (MEM) (Gibco 11095) supplemented with 10% Fetal Bovine Serum, heat inactivated (FBS HI, Gibco 10082), 1× non-essential amino acids (NEAA, Gibco 11140), 1 mM sodium pyruvate (Gibco 11360), 1× Anti-Anti (Gibco 15240) and 10 μg/mL human insulin (Sigma I 9278). MDA-MB-361 cells were maintained in Dulbecco's Modified Eagle Media (DMEM, Gibco 12430) supplemented with 20% Fetal Bovine Serum, heat inactivated (FBS HI, Gibco 10082), 1× non-essential amino acids (NEAA, Gibco 11140), 1 mM sodium pyruvate (Gibco 11360) and 1× Anti-Anti (Gibco 15240). SKBR3 cells were maintained in McCoy's 5A (Gibco 16600) supplemented with 10% Fetal Bovine Serum, heat inactivated (FBS HI, Gibco 10082), and 1× Anti-Anti (Gibco 15240). Cultures were maintained in a humidified incubator at 37° C. under 5% CO2/95% air.
For compound testing in 0% FBS, MDA-MB-453, MCF-7 and SKBR3 cells were seeded at a density of 1.5×10^4, 1.0×10^4, and 1.0×10^4 cells, respectively, per well in white 384-well plates in 20 μl of Minimum Essential Media (MEM) assay media with 1×NEAA, 1 mM sodium pyruvate, and 1 μg/mL human insulin (Sigma 19278) (Assay Medium); while MDA-MB-361 cells were seeded at a density of 1.5×10^4 per well in white 384-well plates in 20 μl Assay Medium without insulin. After plating, cells were allowed to attach overnight. Compounds dissolved in 10 mM stock solutions in DMSO were serially diluted 1:3 in DMSO to generate a 10-point dilution series and plated using an acoustic liquid handler system (Echo 550 Series Liquid Handler, Labcyte). A 5× intermediate compound dilution plate in MEM with 1×NEAA and 1 mM sodium pyruvate (150 μM starting compound concentration in 1.5% DMSO) was then prepared. Five μl of the intermediate serially diluted compounds were added to the cell plate to final concentrations ranging from […] in 0.3% DMSO. 0.3% DMSO alone was used to establish the maximum (MAX) signal and GDC-0032 at a final concentration of 1 μM was used as a reference compound for the minimum (MIN) signal. After 3 hours treatment, the medium was removed, and the cells were lysed in 10 μL of 1× SureFire Lysis buffer with shaking for 10 minutes at room temperature. The Acceptor Mix (Reaction Buffer 1+Reaction Buffer 2+Activation Buffer+SureFire Ultra Acceptor Beads) was prepared by diluting Activation buffer 25-fold in combined Reaction Buffer 1 and Reaction Buffer 2.
The Acceptor beads were diluted 50-fold in the combined Reaction Buffers. Five μL of Acceptor Mix was added to each well, the plate was sealed and covered with foil and incubated for 1 hour at room temperature. The Donor Mix (dilution buffer+SureFire Ultra Donor Beads) was prepared by diluting Donor Beads 50-fold in dilution buffer. Five μL of the Donor Mix was added to each well and the plate sealed and covered with foil and incubated for 1-2 hours at room temperature in the dark. The plates were read on a Neo2 plate reader instrument from Biotek using standard AlphaLisa settings.
Compounds were tested in duplicate and the % inhibition at each compound concentration was used to generate two dose response curves. One IC50 was generated using average % inhibition at each compound concentration. […]

Assay [2] deals with T1, PI3Kα E545K. Nature of the assay: PI3Kα E545K mutant in vitro cell based assay, MDA-MB-361 cells. Also noted: MDA-MB-361 (ATCC-HTB-27) cell line (PI3Kα E545K); host or cells: MDA-MB-361. Particulars: MDA-MB-361 cell line, 0% FBS, no insulin, 3 hours treatment. The gist of the method:
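Compound exposure lasted 3 hours, in duplicate 10-point 1:3 dilutions at 0.3% DMSO final, on overnight-attached MDA-MB-361 cells carrying PI3Kα E545K in insulin-free, 0% FBS MEM. Lysates read by SureFire AlphaLISA. Relative IC50 from 4-parameter logistic fit versus DMSO and 1 μM GDC-0032 controls.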

Each structure is given as a SMILES string.

As a reminder, the IC50 is the concentration at which inhibition is half-maximal. A low value points to inhibition by little substance.

T1 sequence (P42336 whole entry E545K): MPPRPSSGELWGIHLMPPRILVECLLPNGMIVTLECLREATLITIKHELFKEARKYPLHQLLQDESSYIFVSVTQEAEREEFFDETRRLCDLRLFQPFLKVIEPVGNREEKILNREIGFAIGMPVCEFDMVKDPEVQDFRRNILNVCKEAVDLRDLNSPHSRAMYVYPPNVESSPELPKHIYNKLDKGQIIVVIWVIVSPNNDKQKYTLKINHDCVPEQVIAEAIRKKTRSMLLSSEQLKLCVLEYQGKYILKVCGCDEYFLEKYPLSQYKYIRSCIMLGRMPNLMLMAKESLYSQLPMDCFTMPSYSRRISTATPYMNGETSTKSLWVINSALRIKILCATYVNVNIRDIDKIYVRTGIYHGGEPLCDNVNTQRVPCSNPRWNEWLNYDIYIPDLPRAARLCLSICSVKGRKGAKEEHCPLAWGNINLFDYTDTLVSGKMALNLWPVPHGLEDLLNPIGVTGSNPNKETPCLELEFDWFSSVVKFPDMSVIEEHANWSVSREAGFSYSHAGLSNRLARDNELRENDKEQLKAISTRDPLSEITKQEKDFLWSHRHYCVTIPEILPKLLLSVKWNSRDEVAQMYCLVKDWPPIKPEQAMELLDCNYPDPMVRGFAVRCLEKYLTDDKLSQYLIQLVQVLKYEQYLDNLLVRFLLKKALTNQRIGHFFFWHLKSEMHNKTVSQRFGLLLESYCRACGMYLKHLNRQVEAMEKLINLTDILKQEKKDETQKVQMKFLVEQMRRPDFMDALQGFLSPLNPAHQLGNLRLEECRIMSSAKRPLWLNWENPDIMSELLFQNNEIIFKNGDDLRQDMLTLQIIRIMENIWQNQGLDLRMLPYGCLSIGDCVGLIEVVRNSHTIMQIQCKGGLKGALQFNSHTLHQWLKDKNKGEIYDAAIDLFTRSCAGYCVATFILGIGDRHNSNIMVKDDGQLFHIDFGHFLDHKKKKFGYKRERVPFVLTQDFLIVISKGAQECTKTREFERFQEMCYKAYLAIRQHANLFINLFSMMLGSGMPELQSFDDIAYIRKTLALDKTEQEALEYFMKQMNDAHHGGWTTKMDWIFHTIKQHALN
T1 sequence (P27986 whole entry partner): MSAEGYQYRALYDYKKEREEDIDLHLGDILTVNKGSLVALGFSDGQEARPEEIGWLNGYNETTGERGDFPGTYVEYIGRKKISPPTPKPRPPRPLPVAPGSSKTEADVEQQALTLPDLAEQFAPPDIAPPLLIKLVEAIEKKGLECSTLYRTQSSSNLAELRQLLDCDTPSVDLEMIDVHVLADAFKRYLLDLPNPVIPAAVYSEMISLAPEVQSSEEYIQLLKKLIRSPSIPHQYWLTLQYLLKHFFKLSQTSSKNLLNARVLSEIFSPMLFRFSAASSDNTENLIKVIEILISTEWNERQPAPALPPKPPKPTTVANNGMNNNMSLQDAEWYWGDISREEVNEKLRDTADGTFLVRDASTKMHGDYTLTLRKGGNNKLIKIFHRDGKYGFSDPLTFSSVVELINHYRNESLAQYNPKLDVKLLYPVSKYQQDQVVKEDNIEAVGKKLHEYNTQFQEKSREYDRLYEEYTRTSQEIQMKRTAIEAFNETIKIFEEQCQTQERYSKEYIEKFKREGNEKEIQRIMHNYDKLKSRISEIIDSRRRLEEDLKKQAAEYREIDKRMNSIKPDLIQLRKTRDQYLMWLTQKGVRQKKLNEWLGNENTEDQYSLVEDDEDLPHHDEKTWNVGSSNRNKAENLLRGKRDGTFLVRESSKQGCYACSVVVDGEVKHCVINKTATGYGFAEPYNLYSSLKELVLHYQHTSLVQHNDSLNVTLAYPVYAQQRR

`Cc1cc([C@@H](C)Oc2ccc(Cl)nc2C(N)=O)c2oc(-c3ccc4c(c3)CCNC4=O)c(C)c(=O)c2c1` [Example 116A, 6-Chloro-3-[(1R)-1-[3,6-dimethyl-4-oxo-2-(1-oxo-3,4-dihydro-2H-isoquinolin-6-yl)chromen-8-yl]ethoxy]pyridine-2-carboxamide] gave an IC50 against PI3Kα E545K [1] of under 500 nM. The same measure, in the same setting: the figure for `Cc1cc([C@@H](C)Oc2ccc(Cl)nc2C(N)=O)c2oc(-c3ccc4nn(C)c(F)c4c3)c(C)c(=O)c2c1` [Example 48C, 6-Chloro-3-[(1R)-1-[2-(3-fluoro-2-methyl-indazol-5-yl)-3,6-dimethyl-4-oxo-chromen-8-yl]ethoxy]pyridine-2-carboxamide] is under 500 nM; for `Cc1cc([C@@H](C)Oc2ccc(Cl)nc2S(N)(=O)=O)c2oc(-c3ccc4nc(C)cn4c3)c(C)c(=O)c2c1` [Example 120C, 6-Chloro-3-[(1R)-1-[3,6-dimethyl-2-(2-methylimidazo[1,2-a]pyridin-6-yl)-4-oxo-chromen-8-yl]ethoxy]pyridine-2-sulfonamide] it is under 500 nM. The compound `Cc1cc([C@@H](C)Oc2ccc(Cl)nc2S(N)(=O)=O)c2oc(C3(CCO)CC3)c(C)c(=O)c2c1` [Example 127C, 6-Chloro-3-[(1R)-1-[2-[1-(2-hydroxyethyl)cyclopropyl]-3,6-dimethyl-4-oxo-chromen-8-yl]ethoxy]pyridine-2-sulfonamide] had an IC50 against PI3Kα E545K [1] of under 500 nM. Turning to `Cc1cc([C@@H](C)Oc2ccc(Cl)nc2C(N)=O)c2oc(-c3cnn(C)c3)c(C)c(=O)c2c1` [Example 22A, 6-Chloro-3-[(1R)-1-[3,6-dimethyl-2-(1-methylpyrazol-4-yl)-4-oxo-chromen-8-yl]ethoxy]pyridine-2-carboxamide], the IC50 against PI3Kα E545K [1] was under 500 nM. For `Cc1cc([C@@H](C)Oc2ccc(Cl)nc2C(N)=O)c2oc(-c3cnc4scnc4c3)c(C)c(=O)c2c1` [Example 126A, 6-Chloro-3-[(1R)-1-(3,6-dimethyl-4-oxo-2-thiazolo[5,4-b]pyridin-6-yl-chromen-8-yl)ethoxy]pyridine-2-carboxamide], the IC50 against PI3Kα E545K [1] is under 500 nM. Regarding `Cc1cc([C@@H](C)Oc2ccc(Cl)nc2S(N)(=O)=O)c2oc(C3COC3)c(C)c(=O)c2c1` [Example 114C, 6-Chloro-3-[(1R)-1-[3,6-dimethyl-2-(oxetan-3-yl)-4-oxo-chromen-8-yl]ethoxy]pyridine-2-sulfonamide], the IC50 at PI3Kα E545K [1] is under 500 nM. Take `Cc1cc([C@@H](C)Oc2ccc(Cl)nc2C(N)=O)c2oc(-c3ccc4nc(CCO)sc4c3)c(C)c(=O)c2c1` [Example 132C, 6-Chloro-3-[(1R)-1-[2-[2-(2-hydroxyethyl)-1,3-benzothiazol-6-yl]-3,6-dimethyl-4-oxo-chromen-8-yl]ethoxy]pyridine-2-carboxamide]: the IC50 against PI3Kα E545K [1] and against PI3Kα E545K [2] was under 500 nM each time. `Cc1cc([C@@H](C)Oc2ccc(Cl)cc2S(N)(=O)=O)c2oc(-c3ccccc3)c(C)c(=O)c2c1` [Example 98C, 5-Chloro-2-[(1R)-1-(3,6-dimethyl-4-oxo-2-phenyl-chromen-8-yl)ethoxy]benzenesulfonamide]: the IC50 on PI3Kα E545K [1] and against PI3Kα E545K [2] was under 500 nM each time. `Cc1cc([C@@H](C)Oc2ccc(Cl)nc2C(N)=O)c2oc(-c3ccccn3)c(C)c(=O)c2c1` [Example 19A, 6-Chloro-3-[(1R)-1-[3,6-dimethyl-4-oxo-2-(2-pyridyl)chromen-8-yl]ethoxy]pyridine-2-carboxamide]: at PI3Kα E545K [1], the IC50 was under 500 nM. Regarding `Cc1cc([C@@H](C)Oc2ccc(Cl)nc2C(N)=O)c2oc(-c3ccc4c(c3)OCC(=O)N4C)c(C)c(=O)c2c1` [Example 119A, 6-Chloro-3-[(1R)-1-[3,6-dimethyl-2-(4-methyl-3-oxo-1,4-benzoxazin-7-yl)-4-oxo-chromen-8-yl]ethoxy]pyridine-2-carboxamide], the IC50 at PI3Kα E545K [1] and against PI3Kα E545K [2] was under 500 nM in each case. On PI3Kα E545K [1], `Cc1cc([C@@H](C)Oc2ccc(Cl)nc2C(N)=O)c2oc(-c3ccc4c(c3)OCCO4)c(C)c(=O)c2c1` [Example 65A, 6-Chloro-3-[(1R)-1-[2-(2,3-dihydro-1,4-benzodioxin-6-yl)-3,6-dimethyl-4-oxo-chromen-8-yl]ethoxy]pyridine-2-carboxamide] displayed an IC50 of under 500 nM. On the same count and under the same terms, the result for `Cc1cc([C@@H](C)Oc2ccc(Cl)nc2C(N)=O)c2oc(-c3ccc4nsnc4c3)c(C)c(=O)c2c1` [Example 140A, 3-[(1R)-1-[2-(2,1,3-Benzothiadiazol-5-yl)-3,6-dimethyl-4-oxo-chromen-8-yl]ethoxy]-6-chloro-pyridine-2-carboxamide] reads under 500 nM; that for `Cc1cc([C@@H](C)Oc2ccc(Cl)nc2C(N)=O)c2oc(-c3ccc4c(c3)CN(C)C4=O)c(C)c(=O)c2c1` [Example 14B, 6-Chloro-3-[(1R)-1-[3,6-dimethyl-2-(2-methyl-1-oxo-isoindolin-5-yl)-4-oxo-chromen-8-yl]ethoxy]pyridine-2-carboxamide], under 500 nM; that for `Cc1cc([C@@H](C)Oc2ccc(Cl)nc2C(N)=O)c2oc(-c3ccc4c(c3)ncn4C)c(C)c(=O)c2c1` [Example 69A, 6-Chloro-3-[(1R)-1-[3,6-dimethyl-2-(1-methylbenzimidazol-5-yl)-4-oxo-chromen-8-yl]ethoxy]pyridine-2-carboxamide], under 500 nM. The same measure, in the same setting: the figure for `CONS(=O)(=O)c1nc(F)ccc1O[C@H](C)c1cc(C)cc2c(=O)c(C)c(-c3cnn(CC(C)(C)O)c3)oc12` [Example 136C, 6-Fluoro-3-[(1R)-1-[2-[1-(2-hydroxy-2-methyl-propyl)pyrazol-4-yl]-3,6-dimethyl-4-oxo-chromen-8-yl]ethoxy]-N-methoxy-pyridine-2-sulfonamide] is under 500 nM; for `Cc1cc([C@@H](C)Oc2ccc(Cl)nc2C(N)=O)c2oc(-c3ccc4c(c3)CCN(C)C4)c(C)c(=O)c2c1` [Example 71A, 6-Chloro-3-[(1R)-1-[3,6-dimethyl-2-(2-methyl-3,4-dihydro-1H-isoquinolin-6-yl)-4-oxo-chromen-8-yl]ethoxy]pyridine-2-carboxamide] it is under 500 nM; for `Cc1cc([C@@H](C)Oc2ccc(Cl)nc2C(N)=O)c2oc(-c3ccc4c(c3)C(=O)N(C)C4)c(C)c(=O)c2c1` [Example 15B, 6-Chloro-3-[(1R)-1-[3,6-dimethyl-2-(2-methyl-3-oxo-isoindolin-5-yl)-4-oxo-chromen-8-yl]ethoxy]pyridine-2-carboxamide] it is under 500 nM. As to `Cc1cc([C@@H](C)Oc2ccc(Cl)nc2S(N)(=O)=O)c2oc(-c3cnoc3)c(C)c(=O)c2c1` [Example 12C, 6-Chloro-3-[(1R)-1-(2-isoxazol-4-yl-3,6-dimethyl-4-oxo-chromen-8-yl)ethoxy]pyridine-2-sulfonamide], the IC50 against PI3Kα E545K [1] was under 500 nM.
